Bounds are passed on as bounds.

Format in all cases: physicochemical
Data set [1] in a line: Release of drug from bone filler particles coated with the matrix composition following hydration. Conditions: for kinetics of co-release from the surface of coated bone particles: surrounding medium 5% PBS at 37° C., FIG. 15; for period of constant release of DOX: bone filler particles (BioOss) coated with matrix PLGA 85:15, cholesterol, DSPC (18:0), with or without alpha-tocopherol. The procedure:
• 50-75 KDa PLGA (poly (lactic-co-glycolic acid, 85:15 ratio)) • Cholesterol-50%-100% w/w vs. PLGA. The mixture is mixed. The entire process is performed at room temperature. A fat-polymer combination matrix is thus obtained. II. Preparation of Second Solution The following materials are mixed with a volatile organic solvent (methanol and ethyl acetate) • a. […] A phosphatidylcholine, —1,2-distearoyl-sn-glycero-3-phosphocholine (DSPC) present as 300-700% w/w vs. PLGA. The mixture is mixed well. The entire process is conducted at room temperature. When phosphatidylcholine having long saturated fatty chains is used (e.g. DSPC) the process is typically performed at higher temperatures of about 40-50° C. No water is required in the mixture. […] Stirring is continued for 1-5 minutes. The entire process is performed at a temperature of 20-50° C. depending of the lipid used. IV—Evaporation Following Surface Coating In order to coat bone filler particles, the particles are added to the mixture of stage III followed by evaporation of the volatile organic solvents. The entire process is performed at a temperature of 40-50° C. The ratio between the volume and the percentage of solids in the mixture of stage III and the mass of the bone particles will determine the release period of the drug post hydration of the coated particles. V—Vacuum Drying Coated bone particles are vacuum-dried for storage. […] The rate of sustained release of Doxycycline hyclate encapsulated within the matrix composition of the present invention was measured and compared to the release rate of the drug from bone particles socked with free DOX solution (having the same amount of DOX).
The release profile of DOX from a mixture of coated and non coated bone (xenografts bovine—commercial—BioOss) particles was measured. The coated particles were mixed with similar plain (not-coated) bone particles in a ratio of 1:4. […] The formulation in this study comprised PLGA 75:25 and DPPC.
The release of DOX from bone particles (12 mg/sample) coated with different mass of the DOX containing matrix formulation was compared. Following hydration (5% serum at 37° C.) the duration of release of 90% of the initial DOX amount in the formulation was monitored (FIG. 10).

Data set [2] is described as follows: Influence of polymer/lipid composition of the matrix on release rate of the entrapped agent. Conditions: FIG. 8. On the procedure:
The influence of different polymer/lipid compositions on the release rate of a given drug was measured using fluorescein entrapped within a matrix compositing PLGA (75:25), DPPC as the main phospholipid and varying amounts of lauric acid (LA) and phosphatidylethanolamine (PE) having saturated fatty acid moieties of at least 14 carbons. […] The release lasted between about 20 to about 110 days when LA:PE w/w % ratio was varied between 10:10 to 0:0 respectively (vs. the total mass of the formulation). The drug release profile from bone particles coated with matrix formulation comprising PE versus bone particles coated with matrix formulation comprising cholesterol was compared.
The fact that different polymer/lipid compositions influence the release rate can be used to fulfill different clinical needs. […] In contrast, when the antibiotic drug, DOX, was associated with a slow degrading polymer such as PLGA 85:15 and a 18:0 phospholipid such as DSPC, complete release of the drug was accomplished after more than 50 days (FIG. 8).

Data set [3] can be described thus: Drug release from absorbable gelatin sponge containing the sustained release formulation (HPLC). Conditions: 5% serum at 37° C. On the procedure: A solution containing PLGA—75:25, PC 16:0, cholesterol 10% and Doxycycline hyclate (DOX) 10% was injected into the center of the absorbable gelatin sponge foam cube (Gelatamp. ROEKO). The overall content of DOX in the injected formulation was 380 μg in 25 μl. The solvent was evaporated in a 37° C. incubator and subsequently over night under vacuum. As a control, the common use of pre-wetting with a similar dose of DOX (380 μg) solution was injected into the gelatin sponge tube. Following hydration (5% serum at 37° C.) the release of DOX from the gelatin sponge cube into the surrounding was detected and quantified by HPLC.

Take `CCCCCCCCCCCCCCCC(=O)OC[C@H](COP(=O)([O-])OCC[N+](C)(C)C)OC(=O)CCCCCNc1ccc([N+](=O)[O-])c2nonc12` [NBD-PC, 1-palmitoyl-2-{6-[(7-nitro-2-1,3-benzoxadiazol-4-yl)amino]hexanoyl}-sn-glycero-3-phosphocholine]: the “kinetics of co-release from the surface of coated bone particles” value in data set [1] is “zero order kinetics”.
With `CC(C(=O)O)c1ccc(-c2ccccc2)c(F)c1` (stereo not shown) [NSAID, Flurbiprofen], in data set [2] (PLGA 50:50 and 14:0 phospholipid DMPC), the “time to full release of the drug” value is at most 10 days.
For the compound Doxycycline hyclate, the “time to complete release of the drug” value in data set [2] (PLGA 85:15 and 18:0 phospholipid DSPC) was “more than 50 days”. In addition, in data set [1] (DOX encapsulated in the formulation, FIG. 2), the “share of encapsulated DOX released following zero order kinetics” value is reported as about 70%. The “period of constant release of DOX” value is given as “at least 3 weeks” in data set [1] and “about three” in data set [1] (listed as Doxycycline hyclate). Further, in data set [1] (bone filler particles coated with matrix PLGA 85:15, cholesterol, DSPC, FIG. 2), the release kinetics entry is given as “zero order kinetics”. In addition, the “dependence of duration of release of 90% of DOX on formulation mass” value in data set [1] (bone particles 12 mg/sample coated with different mass of formulation, 5% serum at 37° C., FIG. 10) is recorded as “linearly depended on the formulation mass”. Further, the “drug released in 3 hours after hydration” value was “about 15%” in data set [1] (bone particles coated with PLGA 75:25 / DPPC formulation, mixed 1:4 with non-coated particles, 5% serum at 37° C.) and 88% in data set [1] (uncoated bone particles soaked with free DOX (control), 5% serum at 37° C.). Also, in data set [1] (coated bone particles, 5% serum at 37° C., FIG. 7), the “release profile, matrix comprising PE (DMPE) versus matrix comprising cholesterol” value was “behaves similarly”. The “effect of presence of non-coated particles on release of DOX from the formulation” value in data set [1] (coated:non-coated bone particles 1:4, 5% serum at 37° C., PLGA 75:25 and DPPC) was “not affected”. Also, the “kinetics of co-release from the surface of coated bone particles” value in data set [1] was “zero order kinetics”. The “DOX released immediately into the medium” value in data set [3] (control: gelatin sponge pre-wetted with DOX solution (380 μg)) is reported as “total amount”. Besides, the “DOX released into the medium immediately after hydration” value in data set [3] (gelatin sponge (Gelatamp) with PLGA 75:25, PC 16:0, cholesterol 10%, DOX 10%, 380 μg DOX) was “about 40%”. Moreover, in data set [3] (gelatin sponge with PLGA 75:25, PC 16:0, cholesterol 10%, DOX 10%), the “period of gradual release of the rest of the drug” value is “more than 7 days”.
